Where only a bound is given, the exact number is not on record here.

The source of these data is patent US20250170141A1, “MRGPRX2 MODULATORS AND RELATED METHODS OF TREATMENT” (Escient Pharmaceuticals, Inc., priority 2023, published 2025).

The target of this assay is T1, human MRGPRX2 (Homo sapiens, UniProt Q96LB1).
T1 construct: expressed in transfected cells; host or cells: CHO cells, stably transfected (G418 and Hygromycin B selection)
T1 sequence (Q96LB1 1-330): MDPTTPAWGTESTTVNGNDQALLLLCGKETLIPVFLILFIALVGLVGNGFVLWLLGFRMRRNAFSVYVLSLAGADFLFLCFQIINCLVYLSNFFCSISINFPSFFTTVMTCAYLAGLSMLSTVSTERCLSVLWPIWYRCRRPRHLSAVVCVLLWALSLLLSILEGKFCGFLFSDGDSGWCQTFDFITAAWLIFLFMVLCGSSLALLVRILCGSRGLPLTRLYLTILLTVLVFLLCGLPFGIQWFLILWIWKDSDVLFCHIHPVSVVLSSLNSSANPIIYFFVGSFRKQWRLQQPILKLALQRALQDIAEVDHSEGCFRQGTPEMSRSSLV
The assay can be described thus: MRGPRX2 activity: IP-One Gq HTRF assay in CHO cells, antagonism versus 0.3 uM Cortistatin-14. Format: cell-based. The conditions noted are these: versus 0.3 uM Cortistatin-14 agonist, CHO cells expressing human MRGPRX2, read-out: MRGPRX2 Antagonist Activity. Here is the method: CHO cells stably transfected to express human MRGPRX2 were maintained in an incubator at 37° C. with 5% CO2 and grown in F12 (HAM) media with 10% fetal bovine serum (FBS), 1% Glutamax, 1% penicillin/streptomycin, 800 μg/mL Geneticin (G418), and 300 μg/mL Hygromycin B.
Cells were plated in a 384-well assay plate at 20,000 cells per well in 12 μL of Opti-MEM and kept in an incubator overnight. On the day of the assay, compounds solubilized at 10 mM in DMSO were added as a 10-point curve (30 uM final top concentration with 1:3 serial dilutions) using a Tecan D300E digital dispenser. Agonists were diluted in assay buffer (final concentrations of 5.7 mM Tris-HCl, 43 mM NaCl, 50 mM LiCl, pH=8) and 2 μL of the agonist Cortistatin-14 (CPC Scientific, catalog CORT-002) are added to each well. Final concentrations of agonists were 0.3 μM Cortistatin. Final concentrations of DMSO were kept consistent across the plate. Plates were incubated in the dark for 1 h at 37° C. and then for 1 h at room temperature. IP-1 standards and HTRF detection reagents were added according to the IP-One—Gq Kit purchased from Cisbio (part number 62IPAPEJ) and incubated in the dark for 1 h at room temperature. The plate was read on a Molecular Devices SpectraMax iD5 plate reader. The HTRF ratio was calculated from the raw data and graphed using GraphPad Prism to calculate an IC50 value for each compound.
The activity ranges are denoted as follows: “+++++” denotes antagonist activity <100 nM; “++++” denotes antagonist activity between 100 and 500 nM; “+++” denotes activity between 501 and 1000 nM; “++” denotes activity between 1001 and 2500 nM; and “+” denotes activity >2500 nM.
For orientation: Time-resolved FRET reads energy transfer from a long-lived donor to a nearby acceptor.

`Cc1ccc(CNC2=NS(=O)(=O)c3cccc(Cc4ccccc4Cl)c3N2)c(F)c1` [Compound 12-6, 5-(2-chlorobenzyl)-3-((2-fluoro-4-methylbenzyl)amino)-4H-benzo[e][1,2,4]thiadiazine 1,1-dioxide]: the IC50 was < 100 nM.

Regarding `N#Cc1cccc(Oc2c(F)ccc3c2NC(NCc2ncccc2F)=NS3(=O)=O)c1` [Compound 2-13, 3-((6-fluoro-3-(((3-fluoropyridin-2-yl)methyl)amino)-1,1-dioxido-4H-benzo[e][1,2,4]thiadiazin-5-yl)oxy)benzonitrile], the IC50 fell in the range of 501 to 1000 nM.

Take `O=S1(=O)N=C(NCc2ncccc2F)Nc2c1ccc(F)c2Oc1ccc(Cl)cc1Cl` [Compound 1-16, 5-(2,4-dichlorophenoxy)-6-fluoro-3-(((3-fluoropyridin-2-yl)methyl)amino)-4H-benzo[e][1,2,4]thiadiazine 1,1-dioxide]: the IC50 was in the range of 100 to 500 nM.

For the compound `O=S1(=O)N=C(NCc2ncccc2F)Nc2c1ccc(Cl)c2Oc1cccc(F)c1Cl` [Compound 1-51, 6-chloro-5-(2-chloro-3-fluorophenoxy)-3-(((3-fluoropyridin-2-yl)methyl)amino)-4H-benzo[e][1,2,4]thiadiazine 1,1-dioxide], the IC50 is < 100 nM.

With `C[C@H](c1ccccc1F)c1c(F)ccc2c1NC(NCc1ccccc1F)=NS2(=O)=O` [Compound 24-1, (R)-6-fluoro-3-((2-fluorobenzyl)amino)-5-(1-(2-fluorophenyl)ethyl)-4H-benzo[e][1,2,4]thiadiazine 1,1-dioxide], the IC50 is < 100 nM.

For the compound `O=S1(=O)N=C(NCc2ncccc2Cl)Nc2c1ccc(F)c2Oc1ccccc1Cl` [Compound 2-2, 5-(2-chlorophenoxy)-3-(((3-chloropyridin-2-yl)methyl)amino)-6-fluoro-4H-benzo[e][1,2,4]thiadiazine 1,1-dioxide], the IC50 is < 100 nM.

Consider `O=S1(=O)N=C(NCc2ccccc2F)Nc2c(Cc3cccc(Cl)c3)cccc21` [Compound 6-11, 5-(3-chlorobenzyl)-3-((2-fluorobenzyl)amino)-4H-benzo[e][1,2,4]thiadiazine 1,1-dioxide], for which the IC50 was < 100 nM.

With `COc1ccncc1CNC1=NS(=O)(=O)c2cccc(Cc3ccccc3Cl)c2N1` [Compound 12-26, 5-(2-chlorobenzyl)-3-(((4-methoxypyridin-3-yl)methyl)amino)-4H-benzo[e][1,2,4]thiadiazine 1,1-dioxide], the IC50 was in the range of 1000 to 2500 nM.

Turning to `O=S1(=O)N=C(NCc2ccccc2F)Nc2c1cc(F)c(F)c2Cc1ccccc1Cl` [Compound 4-6, 5-(2-chlorobenzyl)-6,7-difluoro-3-((2-fluorobenzyl)amino)-4H-benzo[e][1,2,4]thiadiazine 1,1-dioxide], the IC50 is 100 to 500 nM.

On to `O=S1(=O)N=C(NCc2ccccc2F)Nc2c(Cc3ccc(Cl)cc3)cccc21` [Compound 6-13, 5-(4-chlorobenzyl)-3-((2-fluorobenzyl)amino)-4H-benzo[e][1,2,4]thiadiazine 1,1-dioxide], for which the IC50 was 100 to 500 nM.

As for `O=S1(=O)N=C(NCc2cccc(Cl)c2F)Nc2c1cc(F)c(F)c2Cc1ccccc1Cl` [Compound 4-14, 3-((3-chloro-2-fluorobenzyl)amino)-5-(2-chlorobenzyl)-6,7-difluoro-4H-benzo[e][1,2,4]thiadiazine 1,1-dioxide], the IC50 is 100 to 500 nM.

With `O=S1(=O)N=C(NCc2ncccc2O)Nc2c1cc(F)c(F)c2Cc1ccccc1Cl` [Compound 4-18, 5-(2-chlorobenzyl)-6,7-difluoro-3-(((3-hydroxypyridin-2-yl)methyl)amino)-4H-benzo[e][1,2,4]thiadiazine 1,1-dioxide], the IC50 is > 2500 nM.

Turning to `C=C(c1ccccc1F)c1c(F)ccc2c1NC(NCc1ncccc1F)=NS2(=O)=O` [Compound 13-3, 6-fluoro-5-(1-(2-fluorophenyl)vinyl)-3-(((3-fluoropyridin-2-yl)methyl)amino)-4H-benzo[e][1,2,4]thiadiazine 1,1-dioxide], the IC50 was < 100 nM.

Consider `CC(c1ccccc1F)c1c(F)ccc2c1NC(NCc1cccc(Cl)c1F)=NS2(=O)=O` (stereo not drawn) [Compound 9-2, 3-((3-chloro-2-fluorobenzyl)amino)-6-fluoro-5-(1-(2-fluorophenyl)ethyl)-4H-benzo[e][1,2,4]thiadiazine 1,1-dioxide], for which the IC50 is < 100 nM.

Consider `O=S1(=O)N=C(NCc2ncccc2F)Nc2c(Oc3ccccc3Cl)c(F)cc(F)c21` [Compound 1-1, 5-(2-chlorophenoxy)-6,8-difluoro-3-(((3-fluoropyridin-2-yl)methyl)amino)-4H-benzo[e][1,2,4]thiadiazine 1,1-dioxide], for which the IC50 is 100 to 500 nM.

Consider `Cc1ccc2c(c1Oc1ccccc1Cl)NC(NCc1ncccc1F)=NS2(=O)=O` [Compound 1-4, 5-(2-chlorophenoxy)-3-(((3-fluoropyridin-2-yl)methyl)amino)-6-methyl-4H-benzo[e][1,2,4]thiadiazine 1,1-dioxide], for which the IC50 was < 100 nM.

Turning to `O=S1(=O)N=C(NCc2cccc(F)n2)Nc2c1ccc(F)c2Cc1ccccc1Cl` [Compound 4-2, 5-(2-chlorobenzyl)-6-fluoro-3-(((6-fluoropyridin-2-yl)methyl)amino)-4H-benzo[e][1,2,4]thiadiazine 1,1-dioxide], the IC50 lay in the range of 100 to 500 nM.

For the compound `CC(c1c(F)ccc2c1NC(NCc1cccc(F)c1)=NS2(=O)=O)C1CCCCC1` (stereo not drawn) [Compound 22-5, 5-(1-cyclohexylethyl)-6-fluoro-3-((3-fluorobenzyl)amino)-4H-benzo[e][1,2,4]thiadiazine 1,1-dioxide], the IC50 was < 100 nM.

Turning to `O=S1(=O)N=C(NCc2ccncc2F)Nc2c(Cc3ccccc3Cl)cccc21` [Compound 12-23, 5-(2-chlorobenzyl)-3-(((3-fluoropyridin-4-yl)methyl)amino)-4H-benzo[e][1,2,4]thiadiazine 1,1-dioxide], the IC50 was < 100 nM.

Turning to `O=S1(=O)N=C(NCc2ncccc2F)Nc2c1ccc(F)c2Oc1c(Cl)cccc1Cl` [Compound 1-9, 5-(2,6-dichlorophenoxy)-6-fluoro-3-(((3-fluoropyridin-2-yl)methyl)amino)-4H-benzo[e][1,2,4]thiadiazine 1,1-dioxide], the IC50 was < 100 nM.

Consider `O=S1(=O)N=C(NCc2ccc(F)cc2F)Nc2c1ccc(F)c2Oc1ccccc1Cl` [Compound 1-29, 5-(2-chlorophenoxy)-3-((2,4-difluorobenzyl)amino)-6-fluoro-4H-benzo[e][1,2,4]thiadiazine 1,1-dioxide], for which the IC50 is < 100 nM.

For the compound `O=S1(=O)N=C(NCc2ncccc2F)Nc2c1ccc(F)c2C#Cc1ccccc1` [Compound 19-1, 6-fluoro-3-(((3-fluoropyridin-2-yl)methyl)amino)-5-(phenylethynyl)-4H-benzo[e][1,2,4]thiadiazine 1,1-dioxide], the IC50 fell in the range of 100 to 500 nM.

With `O=S1(=O)N=C(NCc2cnccc2C(F)(F)F)Nc2c1ccc(F)c2Oc1ccccc1Cl` [Compound 1-28, 5-(2-chlorophenoxy)-6-fluoro-3-(((4-(trifluoromethyl)pyridin-3-yl)methyl)amino)-4H-benzo[e][1,2,4]thiadiazine 1,1-dioxide], the IC50 was 501 to 1000 nM.

For the compound `Cc1cccc(C)c1Cc1c(F)ccc2c1NC(NCc1ncccc1F)=NS2(=O)=O` [Compound 5-1, 5-(2,6-dimethylbenzyl)-6-fluoro-3-(((3-fluoropyridin-2-yl)methyl)amino)-4H-benzo[e][1,2,4]thiadiazine 1,1-dioxide], the IC50 is < 100 nM.

On to `O=S1(=O)N=C(NCc2ncccc2F)Nc2c(Oc3ccccc3Cl)c(F)cc(Cl)c21` [Compound 1-41, 8-chloro-5-(2-chlorophenoxy)-6-fluoro-3-(((3-fluoropyridin-2-yl)methyl)amino)-4H-benzo[e][1,2,4]thiadiazine 1,1-dioxide], for which the IC50 lay within 100 to 500 nM.

As to `O=S1(=O)N=C(NCc2ccc(F)cc2)Nc2c1cc(F)c(F)c2Cc1ccccc1Cl` [Compound 4-13, 5-(2-chlorobenzyl)-6,7-difluoro-3-((4-fluorobenzyl)amino)-4H-benzo[e][1,2,4]thiadiazine 1,1-dioxide], the IC50 was 501 to 1000 nM.

With `C=C(c1ccccc1F)c1cccc2c1NC(NCc1ncccc1F)=NS2(=O)=O` [Compound 13-2, 5-(1-(2-fluorophenyl)vinyl)-3-(((3-fluoropyridin-2-yl)methyl)amino)-4H-benzo[e][1,2,4]thiadiazine 1,1-dioxide], the IC50 was < 100 nM.
